Key:
[1] = 14-day repeated dose study, plasma toxicokinetics; set-up: species or system Beagle dogs; details: dog, in vivo
Description: The purpose of this study was to evaluate the toxicokinetic of fluticasone propionate Form A nanosuspensions of the invention (see Table 10 below) administered via topical application directly to the rim (margin) of upper and lower eyelids of both eyes of Beagle dogs.
Fifty naïve Beagle dogs (25 males and 25 females), approximately 5-6 months old and weighing 5.7 to 8.8 kg for males and females at the outset of the study were assigned to treatment groups (groups 1-4) and to vehicle group.
Male and female Beagle dogs were dosed with fluticasone propionate at 1.6, 9.6, and 32 μg/day (bilateral QD topical application) or at 64 μg/day (bilateral BID topical application) via eye lid applicator directly to the upper and lower eyelids of both eyes once or twice daily (minimum of 6 hours between doses) for 14 consecutive days.
Blood for toxicokinetic evaluation was collected from all animals at selected time points on Days 1 and 14.

[2] = In vitro dissolution test (compartment diffusion through dialysis membrane, sink condition); type: physicochemical
Procedure: Dissolution profiles of nanocrystals of Fluticasone propionate form A of two nanosuspensions of the invention and of Fluticasone propionate form 1 micronized were performed using a dissolution method.
The study was performed using a compartment diffusion analysis through a dialysis membrane and sink condition. The sink condition was achieved through the use of a receptor fluid containing 30 mM phosphate buffer, pH 7.4 with 5% HPβCD cyclodextrins and also by a complete replacement of the buffer every 24 hours to stay below the saturation point. The saturation point was estimated to be 5 μg/g under those experimental conditions and the measurements performed as well as the buffer replacement have shown a maximum concentration of 1.5 μg/g. The study was conducted at a temperature of 37° C. The details of the dissolution test method are provided below:
A 5-fold dilution with the formulation vehicle (placebo solution containing all the formulation excipients including the surfactants) of two 0.1% w/w Fluticasone propionate form A nanosuspensions was conducted to obtain a final concentration of 0.02% w/w Fluticasone propionate inside the dialysis device.
Fluticasone propionate form 1 micronized was suspended in the same phosphate buffer used in the receiving compartment of the dialysis system.
Fluticasone propionate release was carried at 1-2 RPM. […]
These aliquots were immediately centrifuged and the measurements were performed by HPLC

[3] = 1 h, second nanosuspension (Table 8)
[4] = 3 h, second nanosuspension (Table 8)
[5] = 5 h, second nanosuspension (Table 8)
[6] = 19 h, second nanosuspension (Table 8)

| % Dissolution Average % ([2]; 1 h) [%] | % Dissolution Tube #1 ([2]; 1 h) [%] | % Dissolution Tube #2 ([2]; 1 h) [%] | % Dissolution Tube #3 ([2]; 1 h) [%] | % Dissolution Average % ([2]; 3 h) [%] | % Dissolution Tube #1 ([2]; 3 h) [%] | % Dissolution Tube #2 ([2]; 3 h) [%] | % Dissolution Tube #3 ([2]; 3 h) [%] | % Dissolution Average % ([2]; 5 h) [%] | % Dissolution Tube #1 ([2]; 5 h) [%] | % Dissolution Tube #2 ([2]; 5 h) [%] | % Dissolution Tube #3 ([2]; 5 h) [%] | Structure (SMILES) | also measured |
| --- | --- | --- | --- | --- | --- | --- | --- | --- | --- | --- | --- | --- | --- |
| – | – | – | – | – | – | – | – | – | – | – | – | CCC(=O)O[C@]1(C(=O)SCF)[C@H](C)C[C@H]2[C@@H]3C[C@H](F)C4=CC(=O)C=C[C@]4(C)[C@@]3(F)[C@@H](O)C[C@@]21C [Fluticasone Propionate, fluticasone propionate] | Dose dependence of exposure [1]: dose-dependent; Gender-related differences in exposure [1]: no discernable gender-related differences; maximum concentration in the receptor fluid ([2]; receptor fluid 30 mM phosphate buffer, pH 7.4 with 5% HPβCD, 37° C.): 1.5 µg/g |
| 0.0 | 0.0 | 0.0 | 0.0 | 0.8 | 0.2 | 1.4 | 0.7 | 2.2 | 1.3 | 2.8 | 2.4 | CCC(=O)O[C@]1(C(=O)SCF)[C@H](C)C[C@H]2[C@@H]3C[C@H](F)C4=CC(=O)C=C[C@]4(C)[C@@]3(F)[C@@H](O)C[C@@]21C [Fluticasone propionate form A nanocrystals] | % Dissolution Average % [2, 3]: 0.0%; % Dissolution Tube #1 [2, 3]: 0.0%; % Dissolution Tube #2 [2, 3]: 0.0%; % Dissolution Tube #3 [2, 3]: 0.0%; % Dissolution Average % [2, 4]: 0.7%; % Dissolution Tube #1 [2, 4]: 0.6%; % Dissolution Tube #2 [2, 4]: 0.5%; % Dissolution Tube #3 [2, 4]: 0.8%; % Dissolution Average % [2, 5]: 2.3%; % Dissolution Tube #1 [2, 5]: 2.4%; % Dissolution Tube #2 [2, 5]: 2.0%; % Dissolution Tube #3 [2, 5]: 2.6%; % Dissolution Average % [2, 6]: 19.0%; % Dissolution Tube #1 [2, 6]: 19.0%; % Dissolution Tube #2 ([2]; 24 h): 24.0%; % Dissolution Tube #3 ([2]; 72 h): 74.0%; dissolution profile compared with Fluticasone propionate form 1 micronized material ([2]; tables 7-9): similar |
| 0.0 | 0.0 | 0.0 | 0.0 | 0.7 | 0.8 | 0.5 | 0.9 | 2.6 | 2.9 | 1.9 | 3.0 | CCC(=O)O[C@]1(C(=O)SCF)[C@H](C)C[C@H]2[C@@H]3C[C@H](F)C4=CC(=O)C=C[C@]4(C)[C@@]3(F)[C@@H](O)C[C@@]21C [Micronized Fluticasone propionate form 1, fluticasone propionate] | % Dissolution Tube #2 ([2]; 48 h): 44.0% |

From patent US12622872B2, “Process for the preparation of sterile ophthalmic aqueous fluticasone propionate form a nanocrystals suspensions” (Nicox Ophthalmics, Inc., priority 2019, dated 2026)
